Assay results taken from patent publication EP3134349B1 (priority 2014, dated 2015).
Converted amounts (≈) assume the structure as drawn.

Test: Water solubility by batch tests at room temperature (saturated solution, headspace GC)
Format: physicochemical
Protocol: In particular, in a vial fully filled with distilled water, a volume of pure compound (alone or mixed) in an amount sufficient for obtaining a well detectable precipitate and thus a saturated solution was injected. In order to quantify the solubilized fraction of the compound, the saturated solution was analyzed through gas chromatography of the headspace.

ClC(Cl)C(Cl)Cl [1,1,2,2-TeCA, 1,1,2,2-Tetrachloroethane]
Experimental solubility (pure compound in distilled water): 2.99 ± 0.18 gL^-1
solubility (thermodynamic from solid, mixture of the two compounds 50% V/V, distilled water, no unit printed in this row (other rows gL^-1), read-out: Mixture 50% V/V (experimental water solubility of the component)): 1470 ± 90 µg/mL (≈ 8.76 mM)
